Reference: patent publication US20250195521A1 (Revolution Medicines, Inc., priority 2020, published 2025)
Read-outs that look alike come from different tables or passages of the source.

Legend:
KRAS G13C = KRAS G13C (Homo sapiens (Human), UniProt P01116+P62937, G13C); test: Ras-Raf disruption/FRET/MOA assay (BRAF RBD, Cyclophilin A); type: biochemical; details: read-out: KRAS G13C FRET IC50
In short: (§1)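 His6-K-Ras-GMPPNP (12.5 nM), GST-BRAF RBD (50 nM) and tagless Cyclophilin A (25 μM) were combined in 25 mM HEPES pH 7.3 with 100 mM NaCl, 5 mM MgCl2, 0.1% BSA and 0.002% Tween20, with compound as a 10-point 3-fold series from 30 μM final, then incubated 3 h at 25° C.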

KRAS WT = KRAS WT (Homo sapiens (Human), UniProt P01116+P62937); test: as above; type: biochemical; details: read-out: KRAS WT FRET data IC50
In short: as §1

KRAS G12V = KRAS G12V (Homo sapiens (Human), UniProt P01116+P62937, G12V); test: as above; type: biochemical; details: read-out: KRAS G12V FRET IC50
In short: as §1

KRAS G12C = KRAS G12C (Homo sapiens (Human), UniProt P01116+P62937, G12C); test: as above; type: biochemical; details: read-out: KRAS G12C FRET IC50
In short: as §1

NRAS G12C = NRAS G12C (Homo sapiens (Human), UniProt P01111+P62937, G12C); test: as above; type: biochemical; details: read-out: NRAS G12C FRET data IC50
In short: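 Ras-GMPPNP (12.5 nM), BRAF RBD (50 nM) and 25 μM Cyclophilin A were incubated with compound for 3 h at 25° C, then detected 1.5 h with anti-His Eu and anti-GST APC; IC50 values follow from the reduced TR-FRET ratio.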

KRAS G12D = KRAS G12D (Homo sapiens (Human), UniProt P01116+P62937, G12D); test: as above; type: biochemical; details: read-out: KRAS G12D FRET IC50
In short: as §1

KRAS G13D = KRAS G13D (Homo sapiens (Human), UniProt P01116+P62937, G13D); test: as above; type: biochemical; details: read-out: KRAS G13D FRET data IC50
In short: as §1

KRAS G12S = KRAS G12S (Homo sapiens (Human), UniProt P01116+P62937, G12S); test: as above; type: biochemical; details: read-out: KRAS G12S FRET IC50
In short: as §1

NCI-H358 (K-Ras G12C) = test: CellTiter-Glo cell viability assay, NCI-H358; type: cell-based, human; details: 5-day treatment, read-out: H358 Cell Viability assay data (K-Ras G12C, IC50)
In short: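 After direct compound addition, plates were incubated to day 5 and equilibrated at room temperature for about 30 minutes before CellTiter-Glo reading. Values derive from luminescence relative to the DMSO mean, fitted with a four-parameter logistic model.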

KRAS WT, sequence (P01116 other isoform, or with tags, fused parts or gaps): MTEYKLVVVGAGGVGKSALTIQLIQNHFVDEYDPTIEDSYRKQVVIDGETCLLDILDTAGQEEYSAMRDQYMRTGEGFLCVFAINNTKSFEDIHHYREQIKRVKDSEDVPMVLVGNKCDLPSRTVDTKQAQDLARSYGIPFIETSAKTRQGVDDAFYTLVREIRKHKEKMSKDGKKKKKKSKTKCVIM
KRAS WT, sequence (P62937 whole entry): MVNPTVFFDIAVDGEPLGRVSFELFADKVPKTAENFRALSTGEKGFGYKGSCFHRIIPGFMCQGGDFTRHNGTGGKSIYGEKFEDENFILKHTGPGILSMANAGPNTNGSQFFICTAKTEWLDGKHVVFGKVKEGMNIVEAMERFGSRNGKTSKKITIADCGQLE
KRAS G13C, sequence (P01116 other isoform, or with tags, fused parts or gaps G13C): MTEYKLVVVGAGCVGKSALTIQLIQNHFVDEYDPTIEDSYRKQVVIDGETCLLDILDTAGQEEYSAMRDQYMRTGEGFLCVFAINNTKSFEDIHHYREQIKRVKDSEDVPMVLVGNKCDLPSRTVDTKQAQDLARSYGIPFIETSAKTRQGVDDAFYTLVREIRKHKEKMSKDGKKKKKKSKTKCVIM
KRAS G13C, sequence (P62937 whole entry): as the sequence (P62937 whole entry) above
KRAS G13D, sequence (P01116 other isoform, or with tags, fused parts or gaps G13D): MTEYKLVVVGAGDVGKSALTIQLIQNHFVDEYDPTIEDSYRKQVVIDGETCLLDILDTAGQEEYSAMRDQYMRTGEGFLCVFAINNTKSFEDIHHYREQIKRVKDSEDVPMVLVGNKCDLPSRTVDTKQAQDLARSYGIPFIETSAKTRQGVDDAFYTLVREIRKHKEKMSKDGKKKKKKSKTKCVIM
KRAS G13D, sequence (P62937 whole entry): as the sequence (P62937 whole entry) above
NRAS G12C, sequence (P01111 whole entry G12C): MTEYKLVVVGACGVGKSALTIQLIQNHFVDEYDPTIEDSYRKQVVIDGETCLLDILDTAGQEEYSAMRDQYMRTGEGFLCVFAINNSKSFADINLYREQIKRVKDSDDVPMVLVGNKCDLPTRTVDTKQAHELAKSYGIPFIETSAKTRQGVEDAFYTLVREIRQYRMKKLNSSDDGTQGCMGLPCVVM
NRAS G12C, sequence (P62937 whole entry): as the sequence (P62937 whole entry) above
KRAS G12C, sequence (P01116-2 other isoform, or with tags, fused parts or gaps G12C): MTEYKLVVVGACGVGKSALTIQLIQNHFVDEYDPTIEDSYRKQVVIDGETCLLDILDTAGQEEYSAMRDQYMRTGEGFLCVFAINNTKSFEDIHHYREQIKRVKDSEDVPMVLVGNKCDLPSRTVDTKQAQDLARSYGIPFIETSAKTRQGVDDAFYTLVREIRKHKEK
KRAS G12C, sequence (P62937 whole entry): as the sequence (P62937 whole entry) above
KRAS G12S, sequence (P01116 other isoform, or with tags, fused parts or gaps G12S): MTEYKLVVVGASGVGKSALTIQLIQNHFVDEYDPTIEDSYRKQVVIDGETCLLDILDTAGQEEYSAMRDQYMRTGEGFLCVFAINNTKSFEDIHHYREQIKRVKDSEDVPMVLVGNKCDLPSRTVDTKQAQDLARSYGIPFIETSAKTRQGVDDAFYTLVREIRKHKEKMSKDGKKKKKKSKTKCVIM
KRAS G12S, sequence (P62937 whole entry): as the sequence (P62937 whole entry) above
KRAS G12V, sequence (P01116 other isoform, or with tags, fused parts or gaps G12V): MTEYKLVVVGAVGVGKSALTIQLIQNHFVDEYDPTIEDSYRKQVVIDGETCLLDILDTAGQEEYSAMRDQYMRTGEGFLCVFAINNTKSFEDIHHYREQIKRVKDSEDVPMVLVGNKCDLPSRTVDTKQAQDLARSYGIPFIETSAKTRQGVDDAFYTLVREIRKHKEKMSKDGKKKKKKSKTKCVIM
KRAS G12V, sequence (P62937 whole entry): as the sequence (P62937 whole entry) above
KRAS G12D, sequence (P01116 other isoform, or with tags, fused parts or gaps G12D): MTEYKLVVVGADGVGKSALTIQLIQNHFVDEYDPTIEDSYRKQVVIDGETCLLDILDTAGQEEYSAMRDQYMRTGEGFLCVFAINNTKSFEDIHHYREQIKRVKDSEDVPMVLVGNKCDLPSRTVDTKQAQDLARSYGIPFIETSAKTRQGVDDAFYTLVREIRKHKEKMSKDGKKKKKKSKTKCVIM
KRAS G12D, sequence (P62937 whole entry): as the sequence (P62937 whole entry) above

Compound | IC50 (KRAS G13C) [nM] | IC50 (KRAS WT) [nM] | IC50 (KRAS G12V) [nM] | IC50 (KRAS G12C) [nM] | IC50 (NRAS G12C) [nM] | IC50 (KRAS G12D) [nM] | IC50 (KRAS G13D) [nM] | IC50 (KRAS G12S) [nM] | IC50 (NCI-H358 (K-Ras G12C); Homo sapiens, NCI-H358, 120 h) [nM] | IC50 (NCI-H358 (K-Ras G12C)) [nM]
CCn1c(-c2cccnc2[C@H](C)OC)c2c3cc(ccc31)-c1csc(n1)C[C@H](NC(=O)[C@H](C(C)C)N1C[C@@H](c3ccccc3)CC1=O)C(=O)N1CCC[C@H](N1)C(=O)OCC(C)(C)C2 (single isomer, unassigned) [Compound A544] | 100 to 1000 | 1000 to 10000 | 1000 to 10000 | 100 to 1000 | 100 to 1000 | 1000 to 10000 | 1000 to 10000 | 1000 to 10000 |  | 
CCn1c(-c2cccnc2[C@H](C)OC)c2c3cc(ccc31)-c1cccc(c1)C[C@H](NC(=O)[C@H](C(C)C)N(C)C(C)=O)C(=O)N1CCC[C@H](N1)C(=O)OCC(C)(C)C2 [Compound A61] | 1000 to 10000 | 1000 to 10000 | 1000 to 10000 | 1000 to 10000 | 1000 to 10000 | > 10000 | 1000 to 10000 | 1000 to 10000 |  | 
CCn1c(-c2cccnc2[C@H](C)OC)c2c3cc(ccc31)-c1cccc(c1)C[C@H](NC(=O)[C@H](C(C)C)N(C)C(=O)[C@H]1CCNC1)C(=O)N1CCC[C@H](N1)C(=O)OCC(C)(C)C2 [Compound A119] | 100 to 1000 | 1000 to 10000 | > 10000 | 1000 to 10000 | 1000 to 10000 | 1000 to 10000 | 100 to 1000 | 100 to 1000 |  | 
CCn1c(-c2cccnc2[C@H](C)OC)c2c3cc(ccc31)-c1csc(n1)C[C@H](NC(=O)[C@H](C(C)C)N(C)C(=O)C1COC1)C(=O)N1CCC[C@H](N1)C(=O)OCC(C)(C)C2 [Compound A245] | 1000 to 10000 | 1000 to 10000 | 1000 to 10000 | 1000 to 10000 | 1000 to 10000 | > 10000 |  | 1000 to 10000 | < 10 | 
CCn1c(-c2cccnc2[C@H](C)OC)c2c3cc(ccc31)-c1cc(O)cc(c1)C[C@H](NC(=O)[C@@H](C(C)C)N(C)C(C)=O)C(=O)N1CCC[C@H](N1)C(=O)OCC(C)(C)C2 [Compound A256] | 100 to 1000 | 1000 to 10000 | 1000 to 10000 | 1000 to 10000 | 1000 to 10000 | > 10000 | 1000 to 10000 | 1000 to 10000 |  | 
CCn1c(-c2cccnc2[C@H](C)OC)c2c3cc(ccc31)-c1csc(n1)C[C@H](NC(=O)[C@H](C(C)C)N(C)C(=O)N1C[C@H](C)N(C)C[C@H]1C)C(=O)N1CCC[C@H](N1)C(=O)OCC(C)(C)C2 [Compound A300] | 1000 to 10000 | 1000 to 10000 | 1000 to 10000 | 1000 to 10000 | 1000 to 10000 | 1000 to 10000 | 1000 to 10000 | 1000 to 10000 |  | 
CCn1c(-c2cccnc2[C@H](C)OC)c2c3cc(ccc31)-c1csc(n1)C[C@H](NC(=O)C1(F)CCC1)C(=O)N1CCC[C@H](N1)C(=O)OCC(C)(C)C2 [Compound A361] | 100 to 1000 | 100 to 1000 | 100 to 1000 | 100 to 1000 | 100 to 1000 | 1000 to 10000 | 100 to 1000 | 100 to 1000 |  | 
CCn1c(-c2cccnc2[C@H](C)OC)c2c3cc(ccc31)-c1csc(n1)C[C@H](NC(=O)C1(F)CC1)C(=O)N1CCC[C@H](N1)C(=O)OCC(C)(C)C2 [Compound A362] | 100 to 1000 | 100 to 1000 | 100 to 1000 | 100 to 1000 | 100 to 1000 | 1000 to 10000 | 1000 to 10000 | 100 to 1000 |  | 
CCn1c(-c2cccnc2[C@H](C)OC)c2c3cc(ccc31)-c1cc(O)cc(c1)C[C@H](NC(=O)[C@H](C(C)C)N(C)C(=O)[C@H]1CCN(C(=O)[C@@H](C)N(C)C)C1)C(=O)N1CCC[C@H](N1)C(=O)OCC(C)(C)C2 [Compound A386] | 10 to 100 | 10 to 100 | 100 to 1000 | 10 to 100 | 10 to 100 | 10 to 100 | 10 to 100 | 10 to 100 |  | 
CCn1c(-c2cc(N3CCN(C)CC3)cnc2[C@H](C)OC)c2c3cc(ccc31)-c1nc(co1)C[C@H](NC(=O)[C@H]1[C@H](C)[C@@H]1C)C(=O)N1CCC[C@H](N1)C(=O)OCC(C)(C)C2 [Compound A391, (1r,2R,3S)—N-((6^3S,4S,Z)-1^1-ethyl-1^2-(2-((S)-1-methoxyethyl)-5-(4-methylpiperazin-1-yl)pyridin-3-yl)-10,10-dimethyl-5,7-dioxo-6^1,6^2,6^3,6^4,6^5,6^6-hexahydro-1^1H-8-oxa-2 (2,4)-oxazola-1 (5,3)-indola-6 (1,3)-pyridazinacycloundecaphane-4-yl)-2,3-dimethylcyclopropane-1-carboxamide] | 10 to 100 |  | 10 to 100 | 10 to 100 |  | 10 to 100 |  | 10 to 100 |  | < 10
CCn1c(-c2cccnc2[C@H](C)OC)c2c3cc(ccc31)-c1cc(O)cc(c1)C[C@H](NC(=O)[C@H](C(C)C)N(C)C(=O)C13CCC(CO1)C3)C(=O)N1CCC[C@H](N1)C(=O)OCC(C)(C)C2 [Compound A411] | 100 to 1000 |  | 100 to 1000 | 10 to 100 | 10 to 100 | 100 to 1000 |  | 10 to 100 | < 10 | 
CCn1c(-c2cc(N3CCN(C)CC3)cnc2[C@H](C)OC)c2c3cc(ccc31)-c1csc(n1)C[C@H](NC(=O)[C@H](C(C)C)N(C)C(=O)[C@H]1CCCS1(=O)=O)C(=O)N1CCC[C@H](N1)C(=O)OCC(C)(C)C2 [Compound A439] | 100 to 1000 | 100 to 1000 | 1000 to 10000 | 100 to 1000 | 100 to 1000 | 1000 to 10000 | 1000 to 10000 | 1000 to 10000 |  | 
CCO[C@@H]1c2nc(cs2)-c2ccc3c(c2)c(c(-c2cc(C4CCN(C5COC5)CC4)cnc2[C@H](C)OC)n3CC)CC(C)(C)COC(=O)[C@@H]2CCCN(N2)C(=O)[C@H]1NC(=O)[C@H]1[C@H](C)[C@@H]1C [Compound A449, (1r,2R,3S)—N-((6^3S,3S,4S,Z)-3-ethoxy-1^1-ethyl-1^2-(2-((S)-1-methoxyethyl)-5-(1-(oxetan-3-yl)piperidin-4-yl)pyridin-3-yl)-10,10-dimethyl-5,7-dioxo-6^1,6^2,6^3,6^4,6^5,6^6-hexahydro-1^1H-8-oxa-2 (4,2)-thiazola-1 (5,3)-indola-6 (1,3)-pyridazinacycloundecaphane-4-yl)-2,3-dimethylcyclopropane-1-carboxamide] | 100 to 1000 |  | 1000 to 10000 | 100 to 1000 |  | 1000 to 10000 |  | 1000 to 10000 |  | 10 to 100
CCn1c(-c2cccnc2[C@H](C)OC)c2c3cc(ccc31)-c1csc(n1)[C@@H](OCC1CCN(C)CC1)[C@H](NC(=O)[C@H]1C[C@@H]1C)C(=O)N1CCC[C@H](N1)C(=O)OCC(C)(C)C2 [Compound A451, (1S,2S)—N-((6^3S,3S,4S,Z)-1^1-ethyl-1^2-(2-((S)-1-methoxyethyl)pyridin-3-yl)-10,10-dimethyl-3-((1-methylpiperidin-4-yl)methoxy)-5,7-dioxo-6^1,6^2,6^3,6^4,6^5,6^6-hexahydro-1^1H-8-oxa-2 (4,2)-thiazola-1 (5,3)-indola-6 (1,3)-pyridazinacycloundecaphane-4-yl)-2-methylcyclopropane-1-carboxamide] | 100 to 1000 |  | 100 to 1000 | 100 to 1000 |  | 1000 to 10000 |  | 100 to 1000 |  | 10 to 100
CCOC1c2nc(cs2)-c2ccc3c(c2)c(c(-c2cc(C4CC5COCC(C4)N5C4CC4)cnc2C(C)OC)n3CC)CC(C)(C)COC(=O)C2CCCN(N2)C(=O)C1NC(=O)C1C(C)C1C [Compound A483, (1r,2R,3S)—N-((6^3S,3S,4S,Z)-12-(5-((1R,5S,7s)-9-cyclopropyl-3-oxa-9-azabicyclo[3.3.1]nonan-7-yl)-2-((S)-1-methoxyethyl)pyridin-3-yl)-3-ethoxy-1^1-ethyl-10,10-dimethyl-5,7-dioxo-6^1,6^2,6^3,6^4,6^5,6^6-hexahydro-1^1H-8-oxa-2 (4,2)-thiazola-1 (5,3)-indola-6 (1,3)-pyridazinacycloundecaphane-4-yl)-2,3-dimethylcyclopropane-1-carboxamide] | 100 to 1000 |  | 100 to 1000 | 10 to 100 |  | 10 to 100 |  | 10 to 100 |  | < 10
CCn1c(-c2cccnc2[C@H](C)OC)c2c3cc(ccc31)-c1csc(n1)C[C@H](NC(=O)[C@H](C(C)C)N(C)C(=O)N1CCC[C@@H]1CN(C)C)C(=O)N1CCC[C@H](N1)C(=O)OCC(C)(C)C2 [Compound A518] | 100 to 1000 | 100 to 1000 | 1000 to 10000 | 100 to 1000 | 100 to 1000 | 100 to 1000 | 100 to 1000 | 100 to 1000 |  | 
